The results in this text go back to ChEMBL document CHEMBL6087404, “Naphthoindole-2-carboxamides as a lipophilic chemotype of hetarene-anthraquinones potent against P-gp resistant tumor cells” (Eur J Med Chem, 2025).

Activity calls are given as the source filed them. No cut-off for these calls is given here.

What is called IC50 is the concentration needed to halve the response being measured. A high value points to a need for much substance.

The nature of data set [1]: Antiproliferative activity against hFB-hTERT6 cells incubated for 72 hrs by MTT assay. Conditions: human. It is filed as toxicity, cell-based. (Formazan colour is commonly taken as a measure of viable cells.)
The subject of another data set is K562/4. Nature of the data set: Antiproliferative activity against human K562/4 cells incubated for 72 hrs by MTT assay. It is filed as functional, cell-based. The settings on record: K562/4, 72 h.
Data set [2] is described as follows: Selectivity index, ratio of IC50 for human hFB-hTERT6 cells to IC50 for human K562 cells. Type of data set: toxicity. The settings on record: hFB-hTERT6 cells and K562 cells, read-out: Ratio IC50.
In the next data set the test system is A549. Nature of the data set: Antiproliferative activity against human A549 cells incubated for 72 hrs by MTT assay. It is filed as functional, cell-based. The settings on record: A549, 72 h.
A short description of data set [3]: Resistance index, ratio of IC50 for human K562/4 cells to IC50 for human K562 cells. Type of data set: functional.
For another data set, the system named is K562. Nature of the data set: Antiproliferative activity against human K562 cells incubated for 72 hrs by MTT assay. It is filed as functional, cell-based. Conditions: K562, 72 h.
Data set [4] in a line: Drug uptake in cytoplasmic membrane of human HCT-116 cells at 3 uM incubated for 1 hr by confocal microscopy. It is filed as ADME, cell membranes, Cytoplasm membrane. Conditions: hct-116, 1 h.
For a further data set, the system named is DNA. Nature of the data set: Binding affinity to pBR322 plasmid DNA (unknown origin) assessed as effect on electrophoretic mobility of DNA at 1 to 40 uM incubated for 30 mins. The settings on record: Escherichia coli, dose 1-40 µM. It is filed as nucleic-acid assay.
Data set [5] is described as follows: Drug uptake in human K562 cells at 2 uM incubated for 3 to 120 hrs by flow cytometry. Type of data set: ADME, cell-based. The settings on record: k562, 2 µM, time 3-120 hrs. On the technique in general: Flow cytometry measures light scatter and fluorescence of single cells or particles in a stream.
Data set [6] is described as follows: Drug uptake in P-gp+ human […] cells at 3 uM incubated for 10 mins by confocal microscopy. Type of data set: ADME, cell-based. The settings on record: k562/4, 10 min.
Data set [7] in a line: Drug uptake in human HCT-116 cells at 3 uM incubated for 10 mins by confocal microscopy. It is filed as ADME, cell-based. The settings on record: hct-116, 10 min.
Data set [8] deals with T1, DNA topoisomerase 1 (Homo sapiens) (UniProt P11387).
T1 sequence (whole entry): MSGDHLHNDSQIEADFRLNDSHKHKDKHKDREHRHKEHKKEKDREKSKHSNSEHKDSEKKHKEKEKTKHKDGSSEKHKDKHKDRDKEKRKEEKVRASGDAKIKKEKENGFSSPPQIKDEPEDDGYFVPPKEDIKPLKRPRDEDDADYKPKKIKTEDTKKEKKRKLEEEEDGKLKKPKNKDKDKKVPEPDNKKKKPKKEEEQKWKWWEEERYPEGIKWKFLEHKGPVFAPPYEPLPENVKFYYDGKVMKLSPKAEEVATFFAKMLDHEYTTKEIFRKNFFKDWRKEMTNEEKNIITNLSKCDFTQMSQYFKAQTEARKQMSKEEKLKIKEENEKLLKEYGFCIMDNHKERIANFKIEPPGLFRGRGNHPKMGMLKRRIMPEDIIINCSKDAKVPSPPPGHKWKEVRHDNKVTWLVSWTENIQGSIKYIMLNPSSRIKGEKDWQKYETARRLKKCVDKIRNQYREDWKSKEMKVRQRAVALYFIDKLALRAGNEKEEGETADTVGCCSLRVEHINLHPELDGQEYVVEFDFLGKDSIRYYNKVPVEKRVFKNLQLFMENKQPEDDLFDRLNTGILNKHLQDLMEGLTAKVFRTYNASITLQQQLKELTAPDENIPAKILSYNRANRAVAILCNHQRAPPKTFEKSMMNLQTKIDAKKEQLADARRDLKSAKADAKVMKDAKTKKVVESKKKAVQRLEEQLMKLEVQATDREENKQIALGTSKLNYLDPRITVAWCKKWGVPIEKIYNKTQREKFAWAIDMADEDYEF
Nature of the data set: Inhibition of Top1 (unknown origin)-mediated unwinding of supercoiled DNA at 5 uM incubated for 30 mins by electrophoretic analysis.

Data set [9] is described as follows: Drug uptake in lysosome of human HCT-116 cells at 3 uM incubated for 1 hr by LysoTracker Deep Red dye based confocal microscopy. The settings on record: hct-116, 1 h. Type of data set: ADME, subcellular.
Data set [10] can be described thus: Drug uptake in nuclear membrane of human HCT-116 cells at 3 uM incubated for 1 hr by confocal microscopy. Type of data set: ADME, cell membranes. Conditions: hct-116, 1 h.

In data set [1], `N[C@H]1CCN(C(=O)c2cc3c(O)c4c(c(O)c3s2)C(=O)c2ccccc2C4=O)C1` had a half-maximal inhibitory concentration (IC50) at 72 h of 1800 nM. Besides, the results for the IC50 with K562/4 and in the data set on A549 were 400 nM and 2000 nM, respectively. The selectivity ratio in [2] was determined as 6. Also, the “Ratio IC50” value in [3] is recorded as 1.2.
On to `CS(=O)(=O)O.NC1CCCN(C(=O)c2cc3c(O)c4c(c(O)c3[nH]2)C(=O)c2ccccc2C4=O)C1` (racemic), for which the IC50 is 1200 nM in the data set on K562, 1000 nM with K562/4 and 1200 nM with A549. This compound had an IC50 at 72 h in data set [1] of 1800 nM. In addition, the selectivity ratio in data set [2] was 1.5. The “Ratio IC50” value in [3] is given as 0.8.
For `CS(=O)(=O)O.O=C(NC1CCNCC1)c1cc2c(O)c3c(c(O)c2[nH]1)C(=O)c1ccccc1C3=O`, the results for the half-inhibitory concentration (IC50) in the data set on K562, in the data set with K562/4 and in the data set with A549 were 1800 nM, 41000 nM and 4200 nM, respectively. The same compound yielded an IC50 at 72 h in [1] of 2600 nM. The selectivity ratio in [2] worked out at 1.4. The “Ratio IC50” value in [3] came to 22.8.
For `CS(=O)(=O)O.O=C(N[C@H]1CCNC1)c1cc2c(O)c3c(c(O)c2[nH]1)C(=O)c1ccccc1C3=O`, the values for the IC50 with K562, in the data set on K562/4 and in the data set on A549 were 3500 nM, 43000 nM and 4300 nM, respectively. This compound displayed an IC50 at 72 h in [1] of 5500 nM. The selectivity ratio in data set [2] was 1.6. Besides, the “Ratio IC50” value in data set [3] stood at 12.3.
Take `CS(=O)(=O)O.N[C@@H]1CCN(C(=O)c2cc3c(O)c4c(c(O)c3[nH]2)C(=O)c2ccccc2C4=O)C1`: the IC50 was 1300 nM with K562, 1200 nM with K562/4 and 4300 nM in the data set on A549. The IC50 at 72 h in data set [1] was 4300 nM. In addition, the selectivity ratio in data set [2] came to 3.3. Moreover, the “Ratio IC50” value in data set [3] was 0.9.
With `N[C@H]1CCN(C(=O)c2cc3c(O)c4c(c(O)c3o2)C(=O)c2ccccc2C4=O)C1`, the half-maximal inhibitory concentration (IC50) in the data set with K562 was 1600 nM; in the data set on K562/4, 1700 nM; in the data set with A549, greater than 50000 nM. For the same compound, the IC50 at 72 h in data set [1] was greater than 50000 nM. Also, the selectivity ratio in data set [2] was greater than 31.2. For the same compound, in data set [3], the “Ratio IC50” value is 1.1.
As for `Cc1[nH]c2c(O)c3c(c(O)c2c1C(=O)N1CC[C@H](N)C1)C(=O)c1ccccc1C3=O`, the half-inhibitory concentration (IC50) in the data set with K562 was found to be 400 nM; in the data set on K562/4, 50000 nM; in the data set on A549, 1900 nM. Moreover, the Drug uptake result was “Not_active” in data set [4]; “Not_active” in data set [5]; “Active” in data set [6]; “Active” in data set [7]; “Active” in data set [9]; “Not_active” in data set [10]. In [1], this compound had a 50% inhibitory concentration (IC50) at 72 h of 5000 nM. Moreover, the outcome in the data set on DNA was inactive. The selectivity ratio in data set [2] stood at 12.5. Further, the inhibition result in data set [8] is listed as “Active; Slightly Less Potent”. In addition, in data set [3], the “Ratio IC50” value is listed as 125.
For `COc1cccc2c1C(=O)c1c(O)c3c(c(O)c1C2=O)C[C@@](O)(C(=O)CO)C[C@@H]3O[C@H]1C[C@H](N)[C@H](O)[C@H](C)O1` [DOXORUBICIN], in the data set with K562/4, the IC50 was found to be 14000 nM. This lies in the double-digit micromolar range.
On to `CS(=O)(=O)O.O=C(NC1CCCNC1)c1cc2c(O)c3c(c(O)c2[nH]1)C(=O)c1ccccc1C3=O` (racemic), for which the IC50 in the data set on K562 stood at 1200 nM; with K562/4, 2300 nM; in the data set on A549 it was 9000 nM. In [1], this compound came in with an IC50 at 72 h of 4400 nM. For the same compound, the selectivity ratio in [2] came out at 3.7. The “Ratio IC50” value in [3] is 1.9.
Take `CS(=O)(=O)O.O=C1c2ccccc2C(=O)c2c1c(O)c1cc(C(=O)N3CCNCC3)[nH]c1c2O`: the results for the IC50 in the data set with K562, with K562/4 and in the data set on A549 were 1000 nM, 1200 nM and 4400 nM, respectively. This compound also showed an IC50 at 72 h in data set [1] of 3300 nM. In addition, in data set [2], the selectivity ratio came out at 3.3. The “Ratio IC50” value in [3] is given as 1.2.
For the compound `CS(=O)(=O)O.O=C(N[C@@H]1CCNC1)c1cc2c(O)c3c(c(O)c2[nH]1)C(=O)c1ccccc1C3=O`, the IC50 with K562 came out at 2300 nM; with K562/4, 47000 nM; in the data set with A549, 4000 nM. In data set [1], this compound yielded an IC50 at 72 h of 5000 nM. Besides, the selectivity ratio in data set [2] was 2.2. Further, the “Ratio IC50” value in data set [3] amounted to 20.4.
